According to patent US5561150A, “Tricyclic pyrazole derivatives” (Hoffman-La Roche Inc., priority 1994, dated 1996):
Where a name gives a salt, the structure may show the parent alone. Read-outs that look alike come from different tables or passages of the source.

How the values were obtained:
5HT2C receptor [1] = assay: [3H]-5-HT binding assay, 5HT2C receptor (test method b); details: radioligand [3H]-5-HT, pki = -log10 Ki
Experimental: (§1) The binding of compounds of formula I in accordance with the invention to serotonin receptors was determined in vitro by standard methods. The compounds were investigated in accordance with the assays given hereinafter:
b) For the binding to the 5HT2C receptor in accordance with the [3H]-5-HT binding assay according to the method of S.J Peroutka et al., Brain Research 584, 191-196 (1992).
(§2) The pki values (pki =-log10 Ki) of the test substances are given. The ki value is defined by the following formula: [formula] in which the IC50 values are those concentrations of test compounds in nmol by which 50% of the receptor-bound ligands are displaced. [L] is the concentration of ligand and the KD value is the dissociation constant of the ligand.

5HT2A receptor = 5HT2A receptor (Homo sapiens, UniProt P28223); assay: [3H]-DOB binding assay, 5HT2A receptor (test method c)
Sequence of 5HT2A receptor (P28223 whole entry): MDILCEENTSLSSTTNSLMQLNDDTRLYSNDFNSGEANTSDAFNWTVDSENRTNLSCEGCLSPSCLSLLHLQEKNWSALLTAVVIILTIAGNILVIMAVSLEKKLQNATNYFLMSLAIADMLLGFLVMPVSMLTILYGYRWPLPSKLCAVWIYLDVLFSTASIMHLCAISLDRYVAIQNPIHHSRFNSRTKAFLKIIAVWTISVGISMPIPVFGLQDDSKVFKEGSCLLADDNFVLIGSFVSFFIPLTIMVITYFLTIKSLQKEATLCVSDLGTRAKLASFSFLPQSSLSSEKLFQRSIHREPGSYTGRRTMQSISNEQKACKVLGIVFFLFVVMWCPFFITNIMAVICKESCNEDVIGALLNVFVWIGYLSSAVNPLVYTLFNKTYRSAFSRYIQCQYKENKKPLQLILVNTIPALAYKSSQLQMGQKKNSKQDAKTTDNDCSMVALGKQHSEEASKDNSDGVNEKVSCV
Experimental: as §1
c) For the binding to the 5HT2A receptor in accordance with the [3H]-DOB binding assay according to the method of T. Branchek et al., Molecular Pharmacology 38, 604-609 (1990).
as §2

5HT2C receptor [2] = target: T1, 5HT2C receptor (Rattus norvegicus, UniProt P08909); assay: Penile erection (rats); type: in vivo; details: 0.75 h, within 45 minutes after administration
T1 construct: from tissue; host or cells: living rats (in vivo, s.c. dosing)
T1 sequence (P08909 33-460): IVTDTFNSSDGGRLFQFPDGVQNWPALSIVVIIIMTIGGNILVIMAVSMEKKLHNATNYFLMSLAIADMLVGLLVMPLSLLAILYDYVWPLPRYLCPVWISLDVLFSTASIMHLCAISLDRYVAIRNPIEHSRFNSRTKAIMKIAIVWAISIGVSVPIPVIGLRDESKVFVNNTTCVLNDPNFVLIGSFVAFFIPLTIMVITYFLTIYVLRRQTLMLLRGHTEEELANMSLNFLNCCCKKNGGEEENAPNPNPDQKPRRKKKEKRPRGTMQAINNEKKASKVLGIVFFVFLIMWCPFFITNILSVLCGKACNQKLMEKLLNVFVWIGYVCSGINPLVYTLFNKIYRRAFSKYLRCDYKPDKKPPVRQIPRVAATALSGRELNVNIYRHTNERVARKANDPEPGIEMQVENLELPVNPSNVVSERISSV
Experimental: It has been shown that penile erection is dependent on stimulation of the 5HT2C receptor (see Berendsen & Broekkamp, Eur. J. Pharmacol. 135, 179-184 (1987)).
The number of penile erections was determined within 45 minutes after administration of the test substance. The ED50 is the dose which causes 50% of these erections.

[3] = target: T2, recombinant human-5HT1A receptors (Homo sapiens, UniProt P08908); assay: Displacement assay with [3H]-5-HT (1 nM) on recombinant human 5HT1A receptors expressed in 3T3 cells of mice (test method a); type: binding
T2 construct: expressed in transfected cells; host or cells: 3T3 cells of mice (membranes)
T2 sequence (P08908 1-422): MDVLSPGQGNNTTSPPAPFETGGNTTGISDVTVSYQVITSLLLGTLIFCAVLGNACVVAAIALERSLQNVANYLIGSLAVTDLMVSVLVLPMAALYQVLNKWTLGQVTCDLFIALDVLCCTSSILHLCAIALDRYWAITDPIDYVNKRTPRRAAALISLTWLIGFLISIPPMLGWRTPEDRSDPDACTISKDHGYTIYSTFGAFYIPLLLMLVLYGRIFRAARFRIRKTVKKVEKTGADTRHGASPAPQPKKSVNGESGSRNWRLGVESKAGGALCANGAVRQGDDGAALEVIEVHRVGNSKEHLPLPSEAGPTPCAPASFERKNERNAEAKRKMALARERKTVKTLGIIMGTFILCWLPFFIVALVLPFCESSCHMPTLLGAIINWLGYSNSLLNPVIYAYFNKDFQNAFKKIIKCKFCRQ
Experimental: as §1
[L] is the concentration of ligand and the KD value is the dissociation constant of the ligand.

[4] = po, p.o., read-out: ED50 penile erection, p.o.
[5] = sc, s.c., read-out: ED50 penile erection, s.c.
[6] = 5HT1A, radioligand [3H]-5-HT (1 nM), pki = -log10 Ki, read-out: pKi, test method a (converted)

SMILES	pKi, test method b (5HT2C receptor [1])	Ki (5HT2A receptor) [nM]	ED50 (5HT2C receptor [2]; [4]) [mg/kg]	ED50 (5HT2C receptor [2]; [5]) [mg/kg]	Ki [3] [nM]	Ki [3, 6] [nM]
COc1ccc2c(c1)-c1c(cnn1CC(C)N)C2 (racemic) [Example 1, (RS)-2-(7-methoxy-1,4-dihydro-indeno[2,1-c]pyrazol-1-yl)-1-methyl-ethylamine fumarate (1:1)]	8.26	93.3	3.2	0.32	355	
Cc1ccc2c(c1)-c1c(cnn1CC(C)N)C2(C)C (racemic) [Example 5, (RS)-2-(4,4,7-trimethyl-1,4-dihydroindeno[2,1-c]pyrazol-1-yl)-1-methyl-ethylamine fumarate (1:1)]	7.90	191				631
COc1ccc2c(c1)-c1c(cnn1CC(C)N)C2(C)C (racemic) [Example 6, (RS)-2-(7-methoxy-4,4-dimethyl-1,4-dihydroindeno[2,1-c]pyrazol-1-yl)-1-methyl-ethylamine fumarate (1:1)]	8.33	49			1820	
COc1ccc2c(c1)-c1c(c(C)nn1CC(C)N)C2 (racemic) [Example 8]	7.13	832			6760	
Cc1ccc2c(c1)-c1c(cnn1CC(C)N)C2 (racemic) [Example 10, (RS)-2-(7-methyl-1,4-dihydroindeno[2,1-c]pyrazol-1-yl)-1-methyl-ethylamine fumarate (1:1)]	8.32	50.1				1660
CC(N)Cn1ncc2c1-c1cc(F)ccc1C2 (racemic) [Example 11, (RS)-2-(7-fluoro-1,4-dihydroindeno[2,1-c]pyrazol-1-yl)-1-methyl-ethylaminefumarate (1:1)]	7.51	263				1780
CC(N)Cn1ncc2c1-c1cc(F)ccc1C2(C)C (racemic) [Example 12, (RS)-2-(7-fluoro-4,4-dimethyl-1,4-dihydroindeno[2,1-c]pyrazol-1-yl)-1-methyl-ethylamine fumarate (1:1)]	7.72	141			1230	
CCOc1ccc2c(c1)-c1c(cnn1CC(C)N)C2 (racemic) [Example 13, (RS)-2-(7-ethoxy-1,4-dihydroindeno[2,1-c]pyrazol-1-yl)-1-methyl-ethylaminefumarate (1:1)]	8.38	49	2.7	0.5		1200
COc1ccc2c(c1)Cc1cnn(CC(C)N)c1-2 (racemic) [Example 14, (RS)-2-(6-methoxy-1,4-dihydroindeno[2,1-c]pyrazol-1-yl)-1-methyl-ethylamine fumarate (1:1)]	6.70	1550				2340
COc1ccc2c(c1)-c1c(cnn1CC(C)N)CC2.O=C(O)/C=C/C(=O)O (racemic) [Example 15, (RS)-2-(4,5-dihydro-8-methoxy-1H-benz[g]indazol-1-yl)-1-methyl-ethylamine fumarate (1:1)]	8.28	81.3			1290	
COc1ccc2ccc3cnn(CC(C)N)c3c2c1 (racemic) [Example 16, (RS)-2-(8-methoxy-1H-benz[g]indazol-1-yl)-1-methyl-ethylamine fumarate (1:0.5)]	8.94	25.1			200	
COc1ccc2c(c1)-c1c(cnn1C[C@H](C)N)C2 [Example 2, (S)-2-(7-methoxy-1,4-dihydro-indeno[2,1-c]pyrazol-1-yl)-1-methyl-ethylamine fumarate (1:1)]	8.57	49	1.4	0.32	339	
Cc1ccc2c(c1)-c1c(cnn1C[C@H](C)N)C2(C)C [Example 3, (S)-2-(4,4,7-trimethyl-1,4-dihydro-indeno[2,1-c]pyrazol-1-yl)-1-methyl-ethylamine fumarate (1:1)]	8.32	229				4170
COc1ccc2c(c1)-c1c(cnn1C[C@H](C)N)C2(C)C [Example 4, (S)-2-(7-methoxy-4,4-dimethyl-1,4-dihydroindeno[2,1-c]pyrazol-1-yl)-1-methyl-ethylamine fumarate (1:1)]	8.65	37.2			2630	
COc1ccc2c(c1)-c1c(cnn1C[C@@H](C)N)C2 [Example 7, (R)-2-(7-methoxy-1,4-dihydro-indeno[2,1-c]pyrazol-1-yl)-1-methyl-ethylamine fumarate (1:1)]	7.73	363			2450	
CCOc1ccc2c(c1)-c1c(cnn1C[C@@H](C)N)C2 [Example 17, (R)-2-(7-ethoxy-1,4-dihydro-indeno[2,1-c]pyrazol-1-yl)-1-methyl-ethylaminefumarate (1:1)]	7.40	209				
CCOc1ccc2c(c1)-c1c(cnn1C[C@H](C)N)C2 [Example 18, (S)-2-(7-ethoxy-1,4-dihydro-indeno[2,1-c]pyrazol-1-yl)-1-methyl-ethylaminefumarate (1:1)]	8.48	49	2.3	0.7		1000
